Data published in patent US20150080475A1, “Memantine Protects Inflammation-Related Degeneration of Dopamine Neurons Through Inhibition of Over-Activated Microglia and Release of Neurotrophic Factors From Astroglia” (priority 2009, published 2015).

Tests used:
[1] = tested on: GDNF; test: Western blot of GDNF protein in astroglial cells; assay type: cell-based, rat; details: memantine 10 μM
Protocol: GDNF mediated memantine-induced neurotrophic effects. Rat primary astroglia were exposed to 10 μM memantine for various time points ranging from 0 minute to 24 h. (FIG. 5A) Total RNA was extracted. […] (FIG. 5B) The ratio of densitometry values of GDNF and β-actin was analyzed and normalized to 0 min value. (FIG. 5C) Total protein of astroglial cells was extracted. Western blot analyses were performed with the antibody to GDNF. GAPDH was used as loading control. (FIG. 5D) The ratio of densitometry values of GDNF and GAPDH was analyzed and normalized to 0 min value. Values were expressed as mean±S.E.M. of three independent experiments. *p<0.05, **p<0.01, ***p<0.001, Bonferroni t-test vs 0 min for FIG. 5B and FIG. 5D; (FIG. 5E) Neuron-glia cultures were treated with either control goat IgG (isotype Ab), or goat anti-GDNF, combined with memantine (10 μM) treatment. DA uptake capacity was measured 7 days later. Results were expressed as a percentage of the vehicle-treated control cultures and represented mean±S.E.M. of three independent experiments performed in triplicate. *p<0.05, **p<0.01, ***p<0.001, Bonferroni's test vs control; #p<0.05, Bonferroni t-test vs memantine treated cultures.
Mixed-glia cultures were first prepared from brains of 1-day-old Fisher 344 rat pups, as described previously. Briefly, mechanically dissociated brain cells (5×10^7) were seeded onto 150-cm^2 culture flasks in Dulbecco's modified Eagle's medium containing 10% heat-inactivated FBS, 2 mM L-glutamine, 1 mM sodium pyruvate, 100 μM non-essential amino acids, 50 U/ml penicillin and 50 μg/ml streptomycin. The cultures were maintained at 37° C. in a humidified atmosphere of 5% CO2 and 95% air, and medium was replenished 4 days after the initial seeding. Upon reaching confluence (usually 12-14 days later), microglia were detached from astrocytes by shaking the flasks at a speed of 180 r.p.m. for 5 h. Astrocytes were then detached with trypsin-ethylenediaminetetraacetic acid (EDTA) and seeded in the same culture medium. […]

[2] = tested on: DA neurons; test: LPS-induced dopaminergic neurotoxicity in microglia-depleted neuron-glia cultures; assay type: cell-based; details: microglia depleted by LME to <1%, LPS 7 days
Protocol: To evaluate the influence of various kinds of glia contribute to effect of MMT on LPS-induced dopaminergic neurotoxicity, microglia-depleted Neuron-/glia Cultures were performed.

[3] = tested on: NMDA receptor; details: in vitro; cited from earlier work
[4] = tested on: DA neurons; test: [3H] DA uptake, LPS-induced neurotoxicity in rat mesencephalic neuron-glia cultures; assay type: cell-based
Protocol: Rat and mouse ventral mesencephalic neuron-glia cultures were prepared using a described protocol (Gao H M, Hong J S, Zhang W Q, Liu B (2002) Distinct Role for Microglia in Rotenone-Induced Degeneration of Dopaminergic Neurons. J Neurosci 22(3):782-790). Briefly, midbrain tissues were dissected from day 14 Fisher 344 rat embryos or day 14 mouse embryos (PHOX^+/+ or PHOX^−/−). Cells were dissociated via gentle mechanical trituration in minimum essential medium (MEM) and immediately seeded (5×10^5/well) in poly D-lysine (20 μg/mL) precoated 24-well plates. Cells were seeded in maintenance media and treated with the treatment media described previously (Gao H M, Hong J S, Zhang W Q, Liu B (2002) Distinct Role for Microglia in Rotenone-Induced Degeneration of Dopaminergic Neurons. J Neurosci 22(3):782-790). Three days after seeding, the cells were replenished with 500 μL of fresh maintenance media. Cultures were exposed 7 days after seeding. At the time of treatment, the composition of the cultures was approximately 48% astrocytes, 11% microglia, 40% neurons, and 1 to 1.5% TH-immunoreactive (ir) neurons.
Cells were incubated in Krebs-Ringer buffer (16 mM NaH2PO4, 1.2 mM MgSO4, 1.3 mM EDTA, […], for 21 min at 37° C. with 1 μM [^3H] DA. Nonspecific uptake was blocked for DA with 10 μM mazindole. After incubation, cells were washed three times with 1 mL/well of ice-cold Krebs-Ringer buffer. Cells were then lysed with 0.5 mL/well of 1 N NaOH and mixed with 15 mL of scintillation fluid. Radioactivity was measured on a scintillation counter, where specific [^3H] DA uptake was calculated by subtracting the mazindole.
Rat mesencephalic neuron-glia cultures were pretreated for 30 min with vehicle or 1, 3, 10 μM MMT before adding LPS (2.5 to 5 ng/ml) to the cultures. One week later, the neurotoxic effect of LPS on DA neurons were assessed by both [H^3] DA uptake, which measures the functional capacity of high affinity uptake of DA cells and cell count of tyrosine hydroxylase-positive (TH-ir) cells. [H^3] […]

Compound: CC12CC3CC(C)(C1)CC(N)(C3)C2.Cl [MMT, 1-amino-3,5-dimethyladamantane hydrochloride]
- GDNF protein level vs vehicle-treated control ([1]; 6 h): significantly increased level
- GDNF protein level vs vehicle-treated control ([1]; 12 h): peaked
- GDNF protein level vs vehicle-treated control ([1]; 24 h): still expressed
- protective effect against LPS-induced dopaminergic neurotoxicity [2]: not found in depletion of microglia
- concentration of memantine on NMDA receptor blocking [3]: about 10 μM
- time of MMT addition after LPS still giving significant neuroprotection (DA uptake) ([4]; MMT 10 μM, LPS 2.5 ng/ml, post-treatment): up to 120 min
- effect on LPS-induced decrease in DA uptake ([4]; neuron-enriched cultures): not in neuron-enriched cultures
- effect on LPS-induced decrease in DA uptake ([4]; pretreated 30 min with 1, 3, 10 μM MMT, neuron-glia cultures, dose-dependent): significantly attenuated the LPS-induced decrease in DA uptake
